Experimental data taken from patent US7781486B2, “Punctual stimulation therapy” (priority 2003, dated 2010).

System: pain (VAS scale) in patients
Assay: Punctual stimulation on both ears with simultaneous intravenous infusion of D-phenylalanine solution; pain reduction in patient case reports
Assay type: in vivo, human
From the text: Very good relief of existing pain can be achieved by means of punctual stimulation, in which electrical current is supplied by way of needle electrodes stuck into the skin, whereby these needle electrodes are placed, in particular, at specifically sensitive points of an outer ear, in the case of the predominant number of patients treated with such stimulation.
On each of three consecutive days, punctual stimulation on both ears, with simultaneous intravenous infusion of a substance that inhibits the enzymatic decomposition of endogenous opioid neuropeptides, was carried out. Afterwards, punctual stimulation was carried out without infusion for the four subsequent days, by means of a small device worn by the patient, to supply power to needle electrodes that are stuck into the skin on one ear. This sequence was repeated several times, in coordination with the patient's need for pain reduction. In the case of punctual stimulations carried out with simultaneous infusion, electrical current was supplied to needle electrodes that were stuck into sensitive points of both ears. A sterile aqueous solution containing 20 g/L D-phenylalanine was administered as the infusion, whereby a total amount of D-phenylalanine of 200 to 300 mg/kilogram of body weight was administered during every treatment procedure. On the first days of the three-day sequences, in each instance, the infusion was started at least 10 min before the punctual stimulation. The flow velocity of the infusion was selected in accordance with an infusion period of 2.5 to 5 h.
Admission to clinic. Punctual stimulation carried out without infusion, by means of power supply to needle electrodes that are stuck into one ear, over a period of four days. Pain reduction achieved in this manner. Subsequently, punctual stimulation by means of power supply to needle electrodes that are stuck in both ears, and simultaneous intravenous infusion of an aqueous solution containing 15 g/L D-phenylalanine, in an amount of 250 mg/kg of body weight. An anti-emetic was also added to the solution. Duration of infusion about 3 h. During the course of this treatment, pain reduction all the way to freedom from pain (VAS-0). After 8 days, discharge from the clinic—free of symptoms, no vomiting, no nausea, no medication. At discharge, application of a device for punctual stimulation on one ear, without infusion, as mentioned above, for four days. Freedom from symptoms remains maintained during this stimulation period. On the following days, slight pain in the abdominal region, in individual instances. Three days after completion of the prior stimulation, again application of a device for a stimulation lasting four days—immediately clear relief. After this stimulation, again increase in pain, but tolerable without medication. After another three days, again application of such a device—free of symptoms. After removal of the device, again slight increase in pain, whereby the number of pain attacks and their intensity has decreased in comparison with previously. After several days, again a device applied for stimulation on one ear, lasting for four days—free of symptoms. After removal of the device, slow increase in pain to VAS-3-4. Ten days after removal of the device, again punctual stimulation on two ears, with intravenous infusion, as explained above. Pain reduction to VAS-0. […] Subsequently slow increase in pain up to maximum VAS-4. Two weeks after punctual stimulation on both ears, again application of a device for four days of stimulation on one ear without infusion—free of symptoms during stimulation. Another two weeks later, again application of such a device—free of symptoms during stimulation. Afterwards, more severe pain again in paraumbilical region, in individual instances. Again, application of a device as mentioned—free from symptoms during the stimulation. Later, sudden increase in pain. Therefore one week later, again punctual stimulation on both ears, with infusion. VAS-0. […]

`N[C@H](Cc1ccccc1)C(=O)O` [D-phenylalanine] was tested, and the “dulling of sensory system” value (after first treatment, 20 g/L, 300 mg/kg i.v.) was “without dulling of the sensory system”, the “duration of complete freedom from pain after treatment” value (after second treatment with infusion) was 48 h and the “maximum pain (VAS) on slow increase after treatment” value (after the 48 h following second treatment with infusion) was no more than 4 VAS. For the same compound, the “pain (VAS) on increase after the pain-free period” value (after three pain-free days) was 4 VAS, the pain after treatment (ankle pain VAS-10, back pain, first treatment: 15 g/L, 250 mg/kg i.v., 3 h, stimulation on both ears) was “complete freedom from pain” and the “pain reduction during each treatment procedure” value (carcinoma with generalized metastases, 20 g/L D-phenylalanine i.v., 200 to 300 mg/kg, infusion 2.5 to 5 h, with punctual stimulation on both ears, three consecutive days) was “pain reduction, which went all the way to freedom from pain”. The “pain (VAS) during treatment” value (lumbar ischialgia, from VAS 9.5, 20 g/L, 300 mg/kg i.v., 3 h, stimulation on both ears) was 0 VAS, the pain after treatment (second treatment on both ears with infusion) was “Complete freedom from pain” and the pain after treatment (second treatment with infusion, from VAS-6) was “complete freedom from pain achieved”.
